Data as given in patent US20050165232A1, “Phenyl substituted imidaopyridines and phenyl substituted benzimidazoles” (priority 2002, published 2005).
Each block holds one compound with its values, some of them ahead of it.

Columns and labels:
adenosine A1 = biological target: T1, adenosine A1 (Rattus norvegicus, UniProt P25099); assay: Rat adenosine A1 tissue assay (vas deferens); design: species or system Wistar rat
T1 construct: Wistar rat (ca. 275 g) vas deferens were used; from tissue; host or cells: Wistar rat vas deferens
T1 sequence (P25099 1-326): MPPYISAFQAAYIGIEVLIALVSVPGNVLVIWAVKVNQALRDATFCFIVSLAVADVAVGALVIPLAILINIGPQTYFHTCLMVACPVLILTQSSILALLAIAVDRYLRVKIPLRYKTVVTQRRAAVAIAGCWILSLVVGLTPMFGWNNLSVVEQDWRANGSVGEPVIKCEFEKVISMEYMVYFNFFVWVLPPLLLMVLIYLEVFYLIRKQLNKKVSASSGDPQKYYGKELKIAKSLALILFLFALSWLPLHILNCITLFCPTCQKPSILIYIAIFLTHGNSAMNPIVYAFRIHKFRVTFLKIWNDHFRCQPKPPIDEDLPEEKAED
Protocol: An adenosine A1 tissue assay was performed as follows to determine antagonist versus agonist functional activity. […] The vehicle used was 0.1% DMSO, the incubation buffer used was Krebs at pH 7.4, and the incubation time was 5 min at 32° C. The administration volume was 10 μL, the bath volume was 10 mL, and the time of assessment was 5 min using an isometric (gram changes) quantitation method. The criteria for functional agonism was a ≧50% reduction of neurogenic twitch relative to CHA response. The criteria for functional antagonism was a ≧50% inhibition of CHA-induced relaxation.

adenosine A3 receptor = biological target: T2, adenosine A3 receptor (Rattus norvegicus, UniProt P28647); assay: Rat adenosine A3 receptor binding assay; conditions: radioligand 125I AB-MECA, rat recombinant EBNA cells
T2 construct: expressed in transfected cells; host or cells: EBNA cells
T2 sequence (P28647 1-320): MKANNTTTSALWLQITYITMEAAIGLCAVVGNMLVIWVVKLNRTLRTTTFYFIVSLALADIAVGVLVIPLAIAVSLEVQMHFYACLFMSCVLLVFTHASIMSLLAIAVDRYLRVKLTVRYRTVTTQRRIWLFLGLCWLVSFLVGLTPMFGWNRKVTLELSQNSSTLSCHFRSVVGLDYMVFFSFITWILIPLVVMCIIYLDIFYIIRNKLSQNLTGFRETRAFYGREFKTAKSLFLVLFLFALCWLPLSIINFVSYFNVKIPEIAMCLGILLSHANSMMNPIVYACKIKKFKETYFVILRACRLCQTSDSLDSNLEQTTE
Protocol: Adenosine A3 radioligand binding was performed as follows. Rat recombinant EBNA cells were used with 1 nM ^125I AB-MECA as ligand.

- agonist reference response (adenosine A1; 0.3 μM): 100%
Compound: OC[C@H]1O[C@@H](n2cnc3c(NC4CCCCC4)ncnc32)[C@H](O)[C@@H]1O [CHA, N6-(cyclohexyl)adenosine]

- Kd (adenosine A3 receptor): 1.3 nM
Compound: CNC(=O)[C@H]1O[C@@H](n2cnc3c(NCc4ccc(N)cc4)ncnc32)[C@H](O)[C@@H]1O [AB-MECA]

- antagonist reference response (adenosine A1; 10 nM): 87%
Compound: CCCn1c(=O)c2[nH]c(C3CCCC3)nc2n(CCC)c1=O [DPCPX, 8-cyclopentyl-1,3-dipropylxanthine]
